The test system of data set [1] is rat paw tissue. The experiment in a line: Histomorphometry lesion scores of paw tissue sections. Format: in vivo. The following applies: vs carrageenan group; for inflammation scores: Figure 11A; for total lesion scores: Figure 11D.
Data set [2] has as its system egg albumin. The experiment in a line: Egg albumin protein denaturation inhibition assay. Conditions: 50–1000 µg/mL; Figure 2B; result in words. As to the method: To determine the egg albumin protein denaturation inhibition assay, the previously mentioned approach was used. Egg albumin (0.2 mL), 2.8 mL of phosphate-buffered saline (pH 6.4), and 2 mL of synthesized compound solutions in various concentrations were added to 5 mL of reaction mixture for this experiment. […] The reaction solutions were heated to 37 °C for 15 min, then to 70 °C for 5 min. After cooling, the absorbance of the solutions was measured at 660 nm. The experiment was conducted in triplicate, and the percentage inhibition of denaturation of the protein was calculated using the following formula:%Inhibition = ((Absorbance Control − Absorbance Sample)/(Absorbance control)) × 100.

Data set [3] concerns the target bovine serum albumin (Bos taurus, UniProt P02769). The data set can be described thus: Bovine serum albumin denaturation inhibition assay. Conditions: 50–1000 µg/mL; Figure 2A; result in words. The procedure:
A bovine serum albumin assay was conducted using the previously mentioned technique. Synthesized compounds were dissolved in 2% Tween 80 saline solution (v/v) to create a solution at different doses of 50, 100, 200, 400, 800, and 1000 μg/mL. To prepare the test control sample (0.5 mL), 0.45 mL of 5% w/v bovine serum albumin was dissolved in 0.05 mL of distilled water. A product control solution was made by mixing 0.45 mL of Tween 80 with 0.50 mL of the test sample. 0.45 mL of bovine serum albumin and 0.50 mL of synthesized compounds made up the […] test solution. […] A pH of 6.3 was adjusted using 1 N HCl. Every solution was heated for 3 min at 60 °C after being kept at 37 °C for 20 min. Samples were then allowed to cool, and their absorbance at 660 nm was measured. Three duplicates of the procedure were carried out, and the percentage inhibition of denaturation of the bovine serum albumin was calculated using the following formula:%Inhibition = ((Absorbance Control − Absorbance Sample)/(Absorbance control)) × 100.

The structures appear in SMILES notation. “Also recorded” adds a separate entry of the source.

Chain of bovine serum albumin (P02769 25-607): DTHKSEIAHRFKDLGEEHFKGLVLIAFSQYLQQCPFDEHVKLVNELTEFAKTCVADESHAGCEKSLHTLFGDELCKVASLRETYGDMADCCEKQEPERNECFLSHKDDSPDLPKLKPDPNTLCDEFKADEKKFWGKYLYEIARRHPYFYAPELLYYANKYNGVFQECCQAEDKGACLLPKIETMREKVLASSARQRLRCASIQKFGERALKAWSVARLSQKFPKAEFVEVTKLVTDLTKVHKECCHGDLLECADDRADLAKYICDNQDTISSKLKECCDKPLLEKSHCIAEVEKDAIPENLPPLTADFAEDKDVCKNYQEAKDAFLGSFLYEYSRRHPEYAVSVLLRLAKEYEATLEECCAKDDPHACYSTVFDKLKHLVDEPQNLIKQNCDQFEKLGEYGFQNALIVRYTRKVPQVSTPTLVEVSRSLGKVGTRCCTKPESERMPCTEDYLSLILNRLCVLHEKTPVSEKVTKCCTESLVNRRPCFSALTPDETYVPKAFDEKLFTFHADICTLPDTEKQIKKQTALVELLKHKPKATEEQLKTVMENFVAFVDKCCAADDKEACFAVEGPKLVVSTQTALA

As for `NC1=NC2(CCCCCC2)n2nc(C(=O)Nc3ccc(S(N)(=O)=O)cc3)nc2N1` [Compound 1, 5′-Amino-N-(4-sulfamoylphenyl). -1′H-spiro[cycloheptane-1,7′-[1,2,4]triazolo[1,5-a][1,3,5] -triazine] -2′-carboxamide], in data set [1], the inflammation scores entry is “significantly reduced inflammation scores” and the total lesion scores entry is reported as “reduced total lesion scores significantly”.

Turning to `CC1(C)CC(=O)CC2(C1)N=C(N)Nc1nc(C(=O)Nc3ccc(S(N)(=O)=O)cc3)nn12` (centres unmarked) [Compound 2], the “inhibition of egg albumin protein denaturation” value in data set [2] was “moderate inhibition; also recorded: superior percentage inhibition of protein denaturation”. Further, in data set [3], the “inhibition of bovine serum albumin denaturation” value is reported as “moderate inhibition; also recorded: superior percentage inhibition of protein denaturation”.

Consider `NC1=NC2(c3ccccc3Cc3ccccc32)n2nc(C(=O)Nc3ccc(S(N)(=O)=O)cc3)nc2N1` [Compound 3], for which the “inhibition of egg albumin protein denaturation” value in data set [2] is on record as “highest protective effect; also recorded: superior percentage inhibition of protein denaturation”. For the same molecule, in data set [1], the inflammation scores result was “approaching those of the normal control group” and the total lesion scores result was “reduced total lesion scores significantly; also recorded: comparable to the normal control group”. In addition, the inflammation scores result in data set [1] (listed as compound 3) is “significantly reduced inflammation scores”. In data set [1] (Figure 11B), the edema scores entry is given as “comparable to those of the control group”. Further, the vascular alteration scores entry in data set [1] (Figure 11C) is given as “near-normal levels”. Moreover, the “inhibition of bovine serum albumin denaturation” value in data set [3] is recorded as “highest protective effect; also recorded: superior percentage inhibition of protein denaturation”.

(Values after publication PMC12292862 (Biomedicines, 2025).)
